This passage reports MIC results from ChEMBL document CHEMBL1147114, “Fluoroquinolone resistance in Haemophilus influenzae is associated with hypermutability” (2007).

What all share (format): functional
Test [1] relates to Haemophilus influenzae. In words: Antimicrobial susceptibility against Haemophilus influenzae C2 isolate with GyrA Asp88Asn, AcrR Leu31His and Arg34Glu mutation.
Test [2] deals with Haemophilus influenzae. Kind of test: Antimicrobial susceptibility against Haemophilus influenzae D4 isolate with GyrA Ser84Tyr, ParC Glu88Lys and AcrR Leu31His, Ile121Val and Gln134Lys mutation.
Test [3] has as its system Haemophilus influenzae. Kind of test: Antimicrobial susceptibility against Haemophilus influenzae B2 isolate with GyrA Asp88Tyr and AcrR Leu31His mutation.
Test [4] has as its system Haemophilus influenzae. Kind of test: Antimicrobial susceptibility against Haemophilus influenzae C isolate with AcrR Leu31His and Arg34Glu mutation.
Test [5] concerns Haemophilus influenzae. Kind of test: Antimicrobial susceptibility against Haemophilus influenzae A1 isolate with GyrA Glu83Cys, ParC Ser84Arg and AcrR 97stop codon mutation.
The test system of test [6] is Haemophilus influenzae. In words: Antimicrobial susceptibility against Haemophilus influenzae C1 isolate with GyrA Asp88Asn, AcrR Leu31His and Arg34Glu mutation.
Test [7] has as its system Haemophilus influenzae. Kind of test: Antimicrobial susceptibility against Haemophilus influenzae A2 with GyrA Glu83Cys, ParC Ser84Arg and AcrR 97stop codon mutation.
Test [8] deals with Haemophilus influenzae. Kind of test: Antimicrobial susceptibility against Haemophilus influenzae A4 isolate with GyrA Glu83Cys, ParC Ser84Arg and AcrR 97stop codon mutation.
Test [9] deals with Haemophilus influenzae. Kind of test: Antimicrobial susceptibility against Haemophilus influenzae A isolate with GyrA Glu83Cys and AcrR 97stop codon mutation.
Test [10] concerns Haemophilus influenzae. Kind of test: Antimicrobial susceptibility against Haemophilus influenzae C3 isolate with GyrA Asp88Asn, ParC Ser84Ile, AcrR Leu31His and Arg34Glu mutation.
Test [11] concerns Haemophilus influenzae. Kind of test: Antimicrobial susceptibility against Haemophilus influenzae D1 isolate with GyrA Ser84Tyr, ParC Glu88Lys and AcrR Leu31His, Ile121Val and Gln134Lys mutation.
The test system of test [12] is Haemophilus influenzae. In words: Antimicrobial susceptibility against Haemophilus influenzae D isolate with AcrR Leu31His, Ile121Val and Gln134Lys mutation.
The subject of test [13] is Haemophilus influenzae. In words: Antimicrobial susceptibility against Haemophilus influenzae A3 isolate with GyrA Glu83Cys, ParC Ser84Arg and AcrR 97stop codon mutation.
The test system of test [14] is Haemophilus influenzae. In words: Antimicrobial susceptibility against Haemophilus influenzae D2 isolate with GyrA Ser84Tyr, ParC Glu88Lys and AcrR Leu31His, Ile121Val and Gln134Lys mutation.
The subject of test [15] is Haemophilus influenzae. Kind of test: Antimicrobial susceptibility against Haemophilus influenzae B isolate with AcrR Leu31His mutation.
Test [16] relates to Haemophilus influenzae. In words: Antimicrobial susceptibility against Haemophilus influenzae D3 isolate with GyrA Ser84Tyr, ParC Glu88Lys and AcrR Leu31His, Ile121Val and Gln134Lys mutation.
Test [17] deals with Haemophilus influenzae. Kind of test: Antimicrobial susceptibility against Haemophilus influenzae B1 isolate with GyrA Asp88Tyr and AcrR Leu31His mutation.

Molecules are shown by their SMILES. In brackets after ≈: the same amount, converted by molar mass.

For the molecule `C[C@H]1COc2c(N3CCN(C)CC3)c(F)cc3c(=O)c(C(=O)O)cn1c23.C[C@H]1COc2c(N3CCN(C)CC3)c(F)cc3c(=O)c(C(=O)O)cn1c23.O` [LEVOFLOXACIN], the MIC against Haemophilus influenzae [1] worked out at 2 µg/mL; against Haemophilus influenzae [2], 4 µg/mL; against Haemophilus influenzae [3] it was 0.25 µg/mL; against Haemophilus influenzae [4], 0.03 µg/mL; in the test on Haemophilus influenzae [5] it was 0.25 µg/mL; against Haemophilus influenzae [6] it was 0.12 µg/mL. Moreover, the MIC against Haemophilus influenzae [7] was 0.5 µg/mL; against Haemophilus influenzae [8], 4 µg/mL; in the test with Haemophilus influenzae [9], 0.03 µg/mL; in the test on Haemophilus influenzae [10] it was 8 µg/mL; with Haemophilus influenzae [11] it was 0.5 µg/mL; against Haemophilus influenzae [12], 0.03 µg/mL. Moreover, the MIC against Haemophilus influenzae [13] was 0.5 µg/mL; with Haemophilus influenzae [14], 2 µg/mL; in the test with Haemophilus influenzae [15], 0.03 µg/mL; in the test on Haemophilus influenzae [16], 4 µg/mL; with Haemophilus influenzae [17], 0.25 µg/mL.
In the case of `CCn1cc(C(=O)O)c(=O)c2ccc(C)nc21` [NALIDIXIC ACID], the MIC against Haemophilus influenzae [1] was found to be 128 µg/mL (≈ 551 µM); in the test on Haemophilus influenzae [2], 128 µg/mL (≈ 551 µM); against Haemophilus influenzae [3], 64 µg/mL (≈ 276 µM); with Haemophilus influenzae [4], 0.5 µg/mL (≈ 2.15 µM); against Haemophilus influenzae [5] it was 1 µg/mL (≈ 4.31 µM); in the test on Haemophilus influenzae [6], 16 µg/mL (≈ 68.9 µM). The MIC turned out to be 64 µg/mL (≈ 276 µM) against Haemophilus influenzae [7]; 128 µg/mL (≈ 551 µM) in the test with Haemophilus influenzae [8]; 0.5 µg/mL (≈ 2.15 µM) against Haemophilus influenzae [9]; 128 µg/mL (≈ 551 µM) in the test with Haemophilus influenzae [10]; 64 µg/mL (≈ 276 µM) with Haemophilus influenzae [11]; 0.5 µg/mL (≈ 2.15 µM) against Haemophilus influenzae [12]. Moreover, the MIC with Haemophilus influenzae [13] is 64 µg/mL (≈ 276 µM); against Haemophilus influenzae [14], 64 µg/mL (≈ 276 µM); in the test with Haemophilus influenzae [15] it was 0.5 µg/mL (≈ 2.15 µM); against Haemophilus influenzae [16] it was 128 µg/mL (≈ 551 µM); in the test with Haemophilus influenzae [17], 32 µg/mL (≈ 138 µM).
`COc1c(N2C[C@@H]3CCCN[C@@H]3C2)c(F)cc2c(=O)c(C(=O)O)cn(C3CC3)c12` [MOXIFLOXACIN]: the MIC in the test with Haemophilus influenzae [1] was determined as 4 µg/mL (≈ 9.96 µM); in the test on Haemophilus influenzae [2] it was 2 µg/mL (≈ 4.98 µM); with Haemophilus influenzae [3], 0.25 µg/mL (≈ 0.623 µM); in the test on Haemophilus influenzae [4], 0.03 µg/mL (≈ 0.0747 µM); in the test with Haemophilus influenzae [5], 0.5 µg/mL (≈ 1.25 µM); with Haemophilus influenzae [6], 0.12 µg/mL (≈ 0.299 µM). The MIC in the test on Haemophilus influenzae [7] was determined as 0.5 µg/mL (≈ 1.25 µM); against Haemophilus influenzae [8] it was 2 µg/mL (≈ 4.98 µM); against Haemophilus influenzae [9], 0.03 µg/mL (≈ 0.0747 µM); against Haemophilus influenzae [10], 4 µg/mL (≈ 9.96 µM); in the test on Haemophilus influenzae [11], 0.5 µg/mL (≈ 1.25 µM); against Haemophilus influenzae [12] it was 0.03 µg/mL (≈ 0.0747 µM). In addition, the MIC against Haemophilus influenzae [13] was 0.5 µg/mL (≈ 1.25 µM); against Haemophilus influenzae [14], 2 µg/mL (≈ 4.98 µM); against Haemophilus influenzae [15], 0.06 µg/mL (≈ 0.149 µM); in the test with Haemophilus influenzae [16] it was 2 µg/mL (≈ 4.98 µM); with Haemophilus influenzae [17] it was 0.25 µg/mL (≈ 0.623 µM).
Consider `O=C(O)c1cn(C2CC2)c2cc(N3CCNCC3)c(F)cc2c1=O` [CIPROFLOXACIN], for which the MIC against Haemophilus influenzae [1] amounted to 2 µg/mL (≈ 6.04 µM); against Haemophilus influenzae [2], 16 µg/mL (≈ 48.3 µM); in the test on Haemophilus influenzae [3], 0.25 µg/mL (≈ 0.754 µM); against Haemophilus influenzae [4], 0.01 µg/mL (≈ 0.0302 µM); in the test on Haemophilus influenzae [5], 0.25 µg/mL (≈ 0.754 µM); in the test on Haemophilus influenzae [6] it was 0.12 µg/mL (≈ 0.362 µM). Besides, the MIC was 0.25 µg/mL (≈ 0.754 µM) in the test on Haemophilus influenzae [7]; 4 µg/mL (≈ 12.1 µM) with Haemophilus influenzae [8]; 0.01 µg/mL (≈ 0.0302 µM) against Haemophilus influenzae [9]; 8 µg/mL (≈ 24.1 µM) in the test on Haemophilus influenzae [10]; 1 µg/mL (≈ 3.02 µM) with Haemophilus influenzae [11]; 0.01 µg/mL (≈ 0.0302 µM) in the test on Haemophilus influenzae [12]. For the same molecule, the MIC against Haemophilus influenzae [13] amounted to 2 µg/mL (≈ 6.04 µM); against Haemophilus influenzae [14] it was 4 µg/mL (≈ 12.1 µM); in the test with Haemophilus influenzae [15] it was 0.03 µg/mL (≈ 0.0905 µM); against Haemophilus influenzae [16] it was 8 µg/mL (≈ 24.1 µM); in the test on Haemophilus influenzae [17], 0.12 µg/mL (≈ 0.362 µM).
